Source: US8362236B2, “Macrocyclic compound” (Chugai Seiyaku Kabushiki Kaisha, priority 2007, dated 2013)

What was measured:
Human HSP90 alpha = target: T1, Human HSP90 alpha (Homo sapiens, UniProt P07900); assay: Assay for the activity of inhibiting HSP90 enzyme (ATPase, malachite green); assay type: biochemical; settings: purified human HSP90 alpha, 1 mM ATP added, 37° C. for two hours, OD655; read-out: Enzyme-inhibiting activity (IC50, μM) Human HSP90α
T1 construct: His tag (inferred from purification on a HisPrep FF column); made in house; host or cells: E. coli BL21 codon plus (Stratagene)
Experimental: Introduction of pETHuHSP90a into E. coli (BL21 codon plus; Stratagene) was followed by O/N incubation in the presence of 0.1 mM IPTG, and the collected E. coli cells were disrupted by ultrasonication in a Lysis buffer (50 mM Tris-HCl (pH8.0), 10 mM MgCl2, 0.1% Triton X-100, Protease inhibitor cocktail tablets (Roche Diagnostics)). The cell lysate solution was centrifuged (10,000 rpm×30 minutes), and the supernatant obtained after centrifugation was used as a crude extract. The crude extract was fractionated using HisPrep FF column and HiTrap Q column (Amersham) to prepare a purified enzyme solution.
An enzyme solution for assays was prepared by dilution of the purified enzyme solution using an assay buffer (50 mM Tris HCl pH7.6, 20 mM KCl, 5 mM MgCl2).
10 μL each of various concentrations of the test substances (10% DMSO solution) was added to each well, and for the positive control wells, 10 μL of 10% DMSO was added. 10 μL of 10% DMSO was also added to the negative control well.
10 μL of 1 mM ATP was added to all of the wells, and the reaction was carried out at 37° C. for two hours.

HCT116 cells = assay: Measurement of cell growth inhibition (Cell Counting Kit-8, four days); settings: Homo sapiens, HCT-116, 96 h, read-out: Cell growth-inhibiting activity (IC50, μM) Colon cancer HCT116, HCT116 colon cancer cell line, four days culture;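 also: cells exposed to a range of test concentrations at 37 °C in 5% CO2 for four days, then growth read as absorbance with Cell Counting Kit-8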
Experimental: Cells were maintained under conditions recommended by the provider of each cell line. Cells suspended in a medium were added to solutions containing various concentrations of the test substance, and the cells were cultured at 37° C. in a 5% CO2 incubator. Four days later, Cell Counting Kit-8 was added, and absorbance measurements were taken following the protocol included in the kit.

Compound	IC50 (Human HSP90 alpha) [µM]	IC50 (HCT116 cells) [µM]
Cc1cc(C)c2cc1C(=O)NCCCCCNC(=O)C(C)CSc1cc-2nc(N)n1 (centres unmarked) [Compound 7, 4-amino-9,20,22-trimethyl-7-thia-3,5,11,17-tetraazatricyclo[17.3.1.1^2,6]tetracosa-1(22),2(24),3,5,19(23),20-hexaene-10,18-dione]	1.6	0.4
Cc1cc(C)c2cc1C(=O)NCCC(NC(=O)C(F)(F)F)C(=O)NCCSc1cc-2nc(N)n1 (centres unmarked) [Compound 75, N-(4-amino-18,20-dimethyl-11,16-dioxo-7-thia-3,5,10,15-tetraazatricyclo[15.3.1.1^2,6]docosa-1(20),2(22),3,5,17(21),18-hexaen-12-yl)-2,2,2-trifluoroacetamide]	1.9	0.5
Cc1cc(C)c2cc1C(=O)N(C)CCCC(=O)NCCSc1cc-2nc(N)n1 [Compound 13, 4-amino-15,18,20-trimethyl-7-thia-3,5,10,15-tetraazatricyclo[15.3.1.1^2,6]docosa-1(20),2(22),3,5,17(21),18-hexaene-11,16-dione]	1.2	4.4
Nc1nc2nc(n1)-c1cc(c(Cl)cc1Cl)OCCOCCOc1cccc(c1)S2 [Compound 27, 21,23-dichloro-13,16,19-trioxa-7-thia-3,5,25-triazatricyclo[18.3.1.1^2,6.1^8,12]hexacosa-1(23),2(25),3,5,8(25),9,11,20(24),21-nonaen-4-ylamine]	2.1	1.4
Nc1nc2nc(n1)-c1cc(c(Cl)cc1Cl)OCCCCOc1cccc(c1)S2 [Compound 26, 20,22-dichloro-13,18-dioxa-7-thia-3,5,24-triazatricyclo[17.3.1.1^2,6.1^8,12]pentacosa-1(22),2(24),3,5,8(25),9,11,19(23),20-nonaen-4-ylamine]	3.3	7.4
Cc1cc(C)c2cc1C(=O)N(C)CCCNC(=O)CCSc1cc-2nc(N)n1 [Compound 3, 4-amino-15,18,20-trimethyl-7-thia-3,5,11,15-tetraazatricyclo[15.3.1.1^2,6]docosa-1(20),2(22),3,5,17(21),18-hexane-10,16-dione]	1.6	0.92
CC(=O)NC1CCNC(=O)c2cc(c(C)cc2C)-c2cc(nc(N)n2)SCCNC1=O (centres unmarked) [Compound 74, N-(4-amino-18,20-dimethyl-10,16-dioxo-7-thia-3,5,10,15-tetraazatricyclo[15.3.1.1^2,6]docosa-1(20),2(22),3,5,17(21),18-hexaen-12-yl)acetamide]	2.3	5.7
COCCN1CCSc2cc(nc(N)n2)-c2cc(c(C)cc2C)C(=O)NCCCC1=O [Compound 80, 4-amino-10-(2-methoxyethyl)-18,20-dimethyl-7-thia-3,5,10,15-tetraazatricyclo[15.3.1.1^2,6]docosa-1(20),2(22),3,5,17(21),18-hexaene-11,16-dione]	2.5	0.2
Cc1cc(C)c2cc1C(=O)NCCC(N)C(=O)NCCSc1cc-2nc(N)n1 (centres unmarked) [Compound 73, 4,12-diamino-18,20-dimethyl-7-thia-3,5,10,15-tetraazatricyclo[15.3.1.1^2,6]docosa-1(20),2(22),3,5,17(21),18-hexaene-11,16-dione]	2.3	0.5
Cc1cc(C)c2cc1C(=O)NCCCN(CCO)C(=O)CCSc1cc-2nc(N)n1 [Compound 34, 4-amino-11-(2-hydroxyethyl)-18,20-dimethyl-7-thia-3,5,11,15-tetraazatricyclo[15.3.1.1^2,6]docosa-1(20),2,4,6(22),17(21),18-hexaene-10,16-dione]	2.8	1.1
Nc1nc2cc(n1)-c1cc(c(Cl)cc1Cl)C(=O)NCCCNC(=O)CCS2 [Compound 8, 4-amino-18,20-dichloro-7-thia-3,5,11,15-tetraazatricyclo[15.3.1.1^2,6]docosa-1(20),2(22),3,5,17(21),18-hexaene-10,16-dione]	2	0.21
Cc1cc(C)c2cc1C(=O)NCCCCCC(=O)NCCSc1cc-2nc(N)n1 [Compound 14, 4-amino-20,22-dimethyl-7-thia-3,5,10,17-tetraazatricyclo[17.3.1.1^2,6]tetracosa-1(22),2(24),3,5,19(23),20-hexaene-11,18-dione]	0.8	0.15
Cc1cc(C)c2cc1C(=O)NC[C@@H](O)CNC(=O)CCSc1cc-2nc(N)n1 [Compound 31, (S)-4-amino-13-hydroxy-18,20-dimethyl-7-thia-3,5,11,15-tetraazatricyclo[15.3.1.1^2,6]docosa-1(20),2(22),3,5,17(21),18-hexaene-10,16-dione]	0.8	1.3
Cc1cc(C)c2cc1C(=O)NCCCC(=O)N(CCO)CCSc1cc-2nc(N)n1 [Compound 79, 4-amino-10-(2-hydroxyethyl)-18,20-dimethyl-7-thia-3,5,10,15-tetraazatricyclo[15.3.1.1^2,6]docosa-1(20),2(22),3,5,17(21),18-hexaene-11,16-dione]	3	0.4

Further lines, results first:

IC50 (Human HSP90 alpha) [µM]	IC50 (HCT116 cells) [µM]	Compound
0.8	> 10	Cc1cc(C)c2cc1C(=O)NCCC[C@@H](C(=O)NCC(O)CO)NC(=O)CCSc1cc-2nc(N)n1 (stereo partly drawn) [Compound 48, (S)-4-amino-19,21-dimethyl-10,17-dioxo-7-thia-3,5,11,16-tetraazatricyclo[16.3.1.1^2,6]tricosa-1(21),2,4,6(23),18(22),19-hexaene-12-carboxylic acid (2,3-dihydroxypropyl) amide]
2.9	9.1	Cc1cc(C)c2cc1C(=O)NCC[C@@H](CN1CCOCC1)NC(=O)CCSc1cc-2nc(N)n1 [Compound 71, (S)-4-amino-18,20-dimethyl-12-morpholin-4-ylmethyl-7-thia-3,5,11,15-tetraazatricyclo[15.3.1.1^2,6]docosa-1(20),2(22),3,5,17(21),18-hexaene-10,16-dione]
2.8	0.2	COC(=O)[C@@H]1CCNC(=O)CCSc2cc(nc(N)n2)-c2cc(c(C)cc2C)C(=O)N1 [Compound 63, (S)-4-amino-18,20-dimethyl-10,16-dioxo-7-thia-3,5,11,15-tetraazatricyclo[15.3.1.1^2,6]docosa-1(20),2(22),3,5,17(21),18-hexaene-14-carboxylic acid methyl ester]
3	1.1	Cc1cc(C)c2cc1C(=O)NCCCC(=O)N(CCN1CCOCC1)CCSc1cc-2nc(N)n1 [Compound 81, 4-amino-10-(2-morpholin-4-ylethyl)-18,20-dimethyl-7-thia-3,5,10,15-tetraazatricyclo[15.3.1.1^2,6]docosa-1(20),2(22),3,5,17(21),18-hexaene-11,16-dione]
2.7	> 10	Cc1cc(C)c2cc1C(=O)NCC[C@@H](C(=O)N1CCOCC1)NC(=O)CCSc1cc-2nc(N)n1 [Compound 70, (S)-4-amino-18,20-dimethyl-12-(morpholine-4-carbonyl)-7-thia-3,5,11,15-tetraazatricyclo[15.3.1.1^2,6]docosa-1(20),2,4,6(22),17(21),18-hexaene-10,16-dione]
2.8	9	CNC(=O)[C@@H]1CCNC(=O)CCSc2cc(nc(N)n2)-c2cc(c(C)cc2C)C(=O)N1 [Compound 65, (S)-4-amino-18,20-dimethyl-10,16-dioxo-7-thia-3,5,11,15-tetraazatricyclo[15.3.1.1^2,6]docosa-1(20),2(22),3,5,17(21),18-hexaene-14-carboxylic acid methylamide]
5.5	> 5	Cc1cc(C)c2cc1C(=O)N[C@H](C(=O)N(C)C)CCNC(=O)CCSc1cc-2nc(N)n1 [Compound 67, (S)-4-amino-18,20-dimethyl-10,16-dioxo-7-thia-3,5,11,15-tetraazatricyclo[15.3.1.1^2,6]docosa-1(20),2(22),3,5,17(21),18-hexaene-14-carboxylic acid dimethylamide]
2.2	1	Cc1cc(C)c2cc1C(=O)NCC1(CNC(=O)CCSc3cc-2nc(N)n3)COC1 [Compound 72]
